We go through two molecules from US7589075B2, “Use of an adenosine A3 receptor agonist for inhibition of viral replication” (Can-Fite Biopharma Ltd., priority 2001, dated 2009).

Common to all, as to format: cell-based
Assay [1] has as its system HIV-1 isolate SF162 in primary human fetal astrocytes. Nature of the assay: p24 ELISA, HIV replication in SF162 infected astroglia. The settings on record: Astroglia/SF-162; 0.01 (μM) every 24 hours; culture medium 5 days after infection; HIV control 313.38. The procedure: Purified primary human fetal astrocytes and microgial cells were prepared from 16 to 20 week old human fetal brain tissue by a modified procedure based on the methods of Cole and de Vellis^11, and Yong and Ante^13. Brain tissue was washed in ice-cold Hank's Balanced Salt Solution (HBSS) containing the antibiotics gentamycin and amphotericin B. Blood vessels and meninges were removed and the tissue was minced into small pieces. After mincing, the tissue was enzymatically dissociated by incubation in 0.05% trypsin and mechanically disrupted by passing several times over a 75 μm nylon mesh filter. The resulting single cell suspension was washed, pelleted and plated at a density of 2-10×10^6 cells per 162 cm^2 flask in DMEM:F12 containing 10% fetal calf serum, insulin, gentamycin, and L-glutamine. After 7-10 days of growth, microglial cells were isolated by placement on rotary shaker at 200 rpm in a 37° C. incubator overnight. The non-adherent cells were removed and allowed to attach to a new flask for 1 to 3 h. […]
Brain derived primary HIV-1 isolates SF162 and JR-FL were cultured in human peripheral blood mononuclear cells (PBMC) essentially as described by Gartner and Popovic^12. […] After stimulation, cells were infected will either SF162 or JR-FL and cultured for 7 to 10 days until high titres of HIV-1 we detected in the supernatant by p24 ELISA assay. […]
On the technique in general: ELISA stands for enzyme-linked immunosorbent assay.

The test system of assay [2] is HIV-1 isolate SF162 in primary human fetal microglia. Put plainly: p24 ELISA, HIV replication in SF162 infected microglia. Conditions: Microglia/SF; for p24 pg/mL Day 5 after infection: HIV control 267.99; for p24 pg/mL Day 10 after infection: HIV control 209.18. How it is done:
(§1) Purified primary human fetal astrocytes and microgial cells were prepared from 16 to 20 week old human fetal brain tissue by a modified procedure based on the methods of Cole and de Vellis^11, and Yong and Ante^13. Brain tissue was washed in ice-cold Hank's Balanced Salt Solution (HBSS) containing the antibiotics gentamycin and amphotericin B. Blood vessels and meninges were removed and the tissue was minced into small pieces. After mincing, the tissue was enzymatically dissociated by incubation in 0.05% trypsin and mechanically disrupted by passing several times over a 75 μm nylon mesh filter. The resulting single cell suspension was washed, pelleted and plated at a density of 2-10×10^6 cells per 162 cm^2 flask in DMEM:F12 containing 10% fetal calf serum, insulin, gentamycin, and L-glutamine. After 7-10 days of growth, microglial cells were isolated by placement on rotary shaker at 200 rpm in a 37° C. incubator overnight. The non-adherent cells were removed and allowed to attach to a new flask for 1 to 3 h. Following attachment, the cells were washed and refed with media containing 10% fetal calf serum, insulin, gentamycin, L-glutamine, and NI supplement. Astrocytes were subcultured from adherent cells in media containing 15% fetal calf serum, insulin, gentamycin, and L-glutamine and contaminating microglia were removed by repeated rotary shaking. Cultured astrocytic and microglial cells were plated at a density of 2.5×10^5 per well into 6 well plates for subsequent infection.
(§2) Brain derived primary HIV-1 isolates SF162 and JR-FL were cultured in human peripheral blood mononuclear cells (PBMC) essentially as described by Gartner and Popovic^12. PBMC were isolated from human buffy coat by fico gradient and plated at a density of 2.5×10^6 per ml in RPMI containing 10% fet calf serum and gentamycin. Cells were stimulated by the addition of 5 ug/ml phytohemagglutinin (PHA) for 48 h. After stimulation, cells were infected will either SF162 or JR-FL and cultured for 7 to 10 days until high titres of HIV-1 we detected in the supernatant by p24 ELISA assay. When viral production was optimal, the cells were pelleted, the supernatant containing HIV-1 was aliquoted and stored at −70° C. until use. P24 ELISA assay was performed on an aliquoted stock to determine the viral titre.
2.5×10^5 microglial or astrocytic cells were plated per well into 6-we plates. The next day, cells were washed and refed with fresh medium. 2×10^4 p2units of either SF 162 or JR-FL virus was added per well in a total of 1 ml of vir inoculum. In control experiments, the virus was not added. Cells were incubated with virus overnight at 37° C., washed extensively with PBS, and refed with […] fresh medium. […] 500 μl of medium were removed at the indicated times following infection and stored at −70° C. for later analysis. Each time medium was removed, a volume amount of fresh medium was added. In control experiments IB-MECA and Cl-IB-MECA were omitted.
ELISA assay to detect the HIV-1 viral core protein, p24, was performed of 50 μl of the collected supernatant utilizing the commercially available p24 ELISA Kit (NEN/Dupont) according to the manufacturer's instructions.

Assay [3] deals with HIV-1 isolate JR-FL in primary human fetal astrocytes. Put plainly: p24 ELISA, HIV replication in JR-FL infected astroglial cells. Conditions: for p24 pg/mL Day 5: Astroglia/JR-FL, 0.01 (μM) every 24 hours, culture medium 5 days after HIV infection, HIV control 22.83; for amount of p24 protein in culture medium from HIV infected cells in comparison to untreated HIV controls: summary statement for Tables 1 to 3 (astroglia and microglia, JR-FL and SF162). How it is done:
as §1, §2
2.5×10^5 microglial or astrocytic cells were plated per well into 6-we plates. The next day, cells were washed and refed with fresh medium. 2×10^4 p2units of either SF 162 or JR-FL virus was added per well in a total of 1 ml of vir inoculum. In control experiments, the virus was not added. Cells were incubated with virus overnight at 37° C., washed extensively with PBS, and refed with […] fresh medium. Cultures were treated with IB-MECA or CI-IB-MECA at concentration of 0.01 μM every 24 hours. […]

In the case of `CNC(=O)[C@H]1O[C@@H](n2cnc3c(NCc4cccc(I)c4)nc(Cl)nc32)[C@H](O)[C@@H]1O` [Cl-IB-MECA], the “p24 pg/mL Day 5” value turned out to be 288.77 pg/mL in assay [1] and 8.45 pg/mL in assay [3]. Moreover, the entries for the “p24 pg/mL Day 5 after infection” value in assay [2] (0.01 (μM)) and in assay [2] (0.1) were 127.03 pg/mL and 10.81 pg/mL, respectively. For the same molecule, the “p24 pg/mL Day 10 after infection” value amounted to 111.05 pg/mL in assay [2] (0.01 (μM)) and 80.37 pg/mL in assay [2] (0.1). Also, the “amount of p24 protein in culture medium from HIV infected cells in comparison to untreated HIV controls” value in assay [3] is “significantly reduced”.
Turning to `CNC(=O)[C@H]1O[C@@H](n2cnc3c(NCc4cccc(I)c4)ncnc32)[C@H](O)[C@@H]1O` [IB-MECA, 1-deoxy-1-{6-[({3-iodophenyl}methyl)amino]-9H-purine-9-yl}-N-methyl-β-D-ribofuranuron-amide], the “p24 pg/mL Day 5” value stood at 137.58 pg/mL in assay [1] and 3.02 pg/mL in assay [3]. Moreover, the “p24 pg/mL Day 5 after infection” value stood at 81.33 pg/mL in assay [2] (0.01 (μM)) and 82.29 pg/mL in assay [2] (0.1). Further, the “p24 pg/mL Day 10 after infection” value in assay [2] (0.01 (μM)) amounted to 62.79 pg/mL; in assay [2] (0.1) it was 54.80 pg/mL. Further, in assay [3], the “amount of p24 protein in culture medium from HIV infected cells in comparison to untreated HIV controls” value is on record as “significantly reduced”.
